In assay [1] the test system is JAK-STAT signalling in HeLa cells. The assay can be described thus: JAK-STAT signalling assay (pSTAT1(2)-luciferase reporter, OSM-triggered HeLa cells). It counts as cell-based. As to conditions: human OSM 33 ng/mL. The procedure: HeLa cells were maintained in Dulbecco's Modified Eagle's Medium (DMEM) containing 10% heat inactivated fetal calf serum, 100 U/mL penicillin and 100 μg/mL streptomycin. HeLa cells were used at 70% confluence for transfection. 20,000 cells in 87 μL cell culture medium were transiently transfected with 40 ng pSTAT1(2)-luciferase reporter (Panomics), 8 ng of LacZ reporter as internal control reporter and 52 ng of pBSK using 0.32 μL Jet-PEI (Polyplus) as transfection reagent per well in 96-well plate format. After overnight incubation at 37° C., 5% CO2, transfection medium was removed. 81 μL of DMEM+1.5% heat inactivated fetal calf serum was added. 9 μL compound at 10× concentration was added for 60 min and then 10 μL of human OSM (Peprotech) at 33 ng/mL final concentration.
All compounds were tested in duplicate starting from 20 μM followed by a ⅓ serial dilution, 8 doses in total (20 μM-6.6 μM-2.2 μM-740 nM-250 nM-82 nM-27 nM-9 nM) in a final concentration of 0.2% DMSO.
After overnight incubation at 37° C., 5% CO2 cells were lysed by adding 100 μL lysis buffer/well (PBS, 0.9 mM CaCl2, 0.5 mM MgCl2, 10% Trehalose, 0.05% Tergitol NP9, 0.3% BSA).
40 μL of cell lysate was used to read β-galactosidase activity by adding 180 μL β-Gal solution (30 μl ONPG 4 mg/mL+150 μL β-Galactosidase buffer (0.06 M Na2HPO4, 0.04 M NaH2PO4, 1 mM MgCl2)) for 20 min. The reaction was stopped by addition of 50 μL Na2CO3 1 M. Absorbance was read at 405 nm.
Luciferase activity was measured using 40 μL cell lysate plus 40 μL of Steadylite® as described by the manufacturer (Perkin Elmer), on the Envision (Perkin Elmer).
Omitting OSM was used as a positive control (100% inhibition). As negative control 0.5% DMSO (0% inhibition) was used. The positive and negative controls were used to calculate z′ and ‘percent inhibition’ (PIN) values. Percentage inhibition=((fluorescence determined in the presence of vehicle−fluorescence determined for sample with test compound present)divided by(fluorescence determined in the presence of vehicle−fluorescence determined for sample without trigger))*100.
PIN values were plotted for compounds tested in dose-response and EC50 values were derived.
(A reporter such as luciferase makes a cellular process visible.)

Assay [2] addresses T1, Recombinant human TYK2 catalytic domain (Homo sapiens, UniProt P29597).
T1 construct: catalytic domain (amino acids 871-1187; catalog number 08-147); GST; purchased Carna Biosciences 08-147
T1 sequence (P29597 871-1187): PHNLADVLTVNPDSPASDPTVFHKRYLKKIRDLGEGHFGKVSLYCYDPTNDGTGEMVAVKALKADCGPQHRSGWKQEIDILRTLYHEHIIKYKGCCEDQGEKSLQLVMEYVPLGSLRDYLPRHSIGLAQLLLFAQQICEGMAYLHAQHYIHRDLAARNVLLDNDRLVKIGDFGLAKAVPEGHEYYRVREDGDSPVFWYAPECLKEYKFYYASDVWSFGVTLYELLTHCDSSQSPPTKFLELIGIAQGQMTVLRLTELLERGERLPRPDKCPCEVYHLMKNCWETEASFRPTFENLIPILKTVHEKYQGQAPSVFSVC
Kind of assay: TYK2 inhibition assay. To be noted: polyGT substrate, 33P-gamma-ATP filter assay, 0.1 μM ATP. It counts as biochemical. The procedure: Recombinant human TYK2 catalytic domain (amino acids 871-1187; catalog number 08-147) was purchased from Carna biosciences. 4 ng of TYK2 was incubated with 12.5 μg polyGT substrate (Sigma catalog number P0275) in kinase reaction buffer (25 mM Hepes pH 7.2, 50 mM NaCl, 0.5 mM EDTA, 1 mM DTT, 5 mM MnCl2, 10 mM MgCl2, 0.1% Brij-35, 0.1 μM non-radioactive ATP, 0.125 μCi ^33P-gamma-ATP (Perkin Elmer, catalog number NEG602K001MC) final concentrations) with or without 5 μL containing test compound or vehicle (DMSO, 1% final concentration), in a total volume of 25 μL, in a polypropylene 96-well plate (Greiner, V-bottom). After 90 min at 30° C., reactions were stopped by adding 25 μL/well of 150 mM phosphoric acid. All of the terminated kinase reaction was transferred to prewashed (75 mM phosphoric acid) 96 well filter plates (Perkin Elmer catalog number 6005177) using a cell harvester (Perkin Elmer). Plates were washed 6 times with 300 μL per well of a 75 mM phosphoric acid solution and the bottom of the plates was sealed. 40 μL/well of Microscint-20 was added, the top of the plates was sealed and readout was performed using the Topcount (Perkin Elmer). Kinase activity was calculated by subtracting counts per min (cpm) obtained in the presence of a positive control inhibitor (10 μM staurosporine) from cpm obtained in the presence of vehicle. The ability of a test compound to inhibit this activity was determined as: Percentage inhibition=((cpm determined for sample with test compound present−cpm determined for sample with positive control inhibitor)divided by(cpm determined in the presence of vehicle−cpm determined for sample with positive control inhibitor))*100.
Dose dilution series were prepared for the compounds enabling the testing of dose-response effects in the TYK2 assay and the calculation of the IC50 for each compound. Each compound was routinely tested at concentration of 20 μM followed by a ⅓ serial dilution, 8 points (20 μM-6.67 μM-2.22 μM-740 nM-247 nM-82 nM-27 nM-9 nM) in a final concentration of 1% DMSO. When potency of compound series increased, more dilutions were prepared and/or the top concentration was lowered (e.g. 5 μM, 1 μM).

The values below come from patent US8975406B2, “Compound useful for the treatment of degenerative and inflammatory diseases” (Galapagos N.V., priority 2011, dated 2015).

SMILES strings stand for the structures.

What is called IC50 is the concentration needed to halve the response being measured.

Consider `CS(=O)(=O)N1CC[C@@H](Oc2ccc(-c3cccn4nc(NC(=O)C5CC5)cc34)cc2)C1` [Compound 49, (R)-N-(4-(4-(1-(methylsulfonyl)pyrrolidin-3-yloxy)phenyl)pyrazolo[1,5-a]pyridin-2-yl)cyclopropanecarboxamide], for which the IC50 fell in the range of 101 to 500 nM in assay [1] and 0.01 to 100 nM in assay [2].

Turning to `CS(=O)(=O)N1CCN(Cc2ccc(-c3cccn4nc(NC(=O)C5CC5)cc34)cc2)CC1` [Compound 15, N-(4-(4-((4-(methylsulfonyl)piperazin-1-yl)methyl)phenyl)pyrazolo[1,5-a]pyridin-2-yl)cyclopropanecarboxamide], the IC50 was in the range of 101 to 500 nM in assay [1] and 0.01 to 100 nM in assay [2].

`O=C(Nc1cc2c(-c3ccc4c(ccn4Cc4ccccc4)c3)cccn2n1)C1CC1` [Compound 3, N-(4-(1-benzyl-1H-indol-5-yl)pyrazolo[1,5-a]pyridin-2-yl)cyclopropanecarboxamide]: the IC50 in assay [1] was above 1000 nM; in assay [2], 101 to 500 nM.

Turning to `O=C(Nc1nn2cccc(-c3ccc(CN4CCS(=O)(=O)CC4)cc3)c2c1Br)C1CC1` [Compound 12, Cyclopropanecarboxylic acid {4-[4-(1,1-dioxo-thiomorpholin-4-ylmethyl)-phenyl]-3-bromo-pyrazolo[1,5-a]pyridin-2-yl}-amide], the values for the IC50 in assay [1] and in assay [2] were above 1000 nM and 0.01 to 100 nM, respectively.

Take `CS(=O)(=O)C1CCN(Cc2ccc(-c3cccn4nc(NC(=O)C5CC5)cc34)cc2F)CC1` [Compound 18, N-(4-(3-fluoro-4-((4-(methylsulfonyl)piperidin-1-yl)methyl)phenyl)pyrazolo[1,5-a]pyridin-2-yl)cyclopropanecarboxamide]: the IC50 lay in the range of 101 to 500 nM in assay [1] and 0.01 to 100 nM in assay [2].

As for `CC(=O)Nc1cc2c(-c3ccc(CC(=O)N4CC(F)(F)C4)cc3)cccn2n1` [Compound 34, N-(4-(4-(2-(3,3-difluoroazetidin-1-yl)-2-oxoethyl)phenyl)pyrazolo[1,5-a]pyridin-2-yl)acetamide], the IC50 in assay [1] lay within 501 to 1000 nM; in assay [2], 0.01 to 100 nM.

Consider `N#Cc1ccc(COc2ccc(-c3cccn4nc(NC(=O)C5CC5)cc34)cc2)cn1` [Compound 9, N-(4-(4-((6-cyanopyridin-3-yl)methoxy)phenyl)pyrazolo[1,5-a]pyridin-2-yl)cyclopropanecarboxamide], for which the IC50 fell in the range of 101 to 500 nM in assay [1] and 0.01 to 100 nM in assay [2].

In the case of `C[C@@H](c1ccc(-c2cccn3nc(NC(=O)C4CC4)cc23)cc1)N1CCN(S(C)(=O)=O)CC1` [Compound 47, (S)-N-(4-(4-(1-(4-(methylsulfonyl)piperazin-1-yl)ethyl)phenyl)pyrazolo[1,5-a]pyridin-2-yl)cyclopropanecarboxamide], the IC50 in assay [1] is 101 to 500 nM; in assay [2] it was 0.01 to 100 nM.

For the molecule `O=C(Nc1cc2c(-c3ccc4[nH]ccc4c3)cccn2n1)C1CC1` [Compound 4, N-(4-(1H-indol-5-yl)pyrazolo[1,5-a]pyridin-2-yl)cyclopropanecarboxamide], the IC50 in assay [1] is above 1000 nM; in assay [2], 0.01 to 100 nM.

Turning to `CS(=O)(=O)C1CCN(Cc2ccc(-c3cccn4nc(NC(=O)C5CC5)cc34)cc2)CC1` [Compound 17, N-(4-(4-((4-(methylsulfonyl)piperidin-1-yl)methyl)phenyl)pyrazolo[1,5-a]pyridin-2-yl)cyclopropanecarboxamide], the values for the IC50 in assay [1] and in assay [2] were 501 to 1000 nM and 0.01 to 100 nM, respectively.

Regarding `CC(=O)Nc1cc2c(-c3ccc(CN4CCN(S(C)(=O)=O)CC4)cc3)cccn2n1` [Compound 25, N-(4-(4-((4-(methylsulfonyl)piperazin-1-yl)methyl)phenyl)pyrazolo[1,5-a]pyridin-2-yl)acetamide], the half-inhibitory concentration (IC50) was in the range of 501 to 1000 nM in assay [1] and 101 to 500 nM in assay [2].

On to `CC(=O)Nc1cc2c(-c3ccc(C(C)N4CCN(S(C)(=O)=O)CC4)cc3)cccn2n1` (stereo not drawn) [Compound 45, N-(4-(4-(1-(4-(methylsulfonyl)piperazin-1-yl)ethyl)phenyl)pyrazolo[1,5-a]pyridin-2-yl)acetamide], for which the IC50 in assay [1] was 501 to 1000 nM; in assay [2], 0.01 to 100 nM.

As to `C[C@H](c1ccc(-c2cccn3nc(NC(=O)C4CC4)cc23)cc1)N1CCN(S(C)(=O)=O)CC1` [Compound 46, (R)-N-(4-(4-(1-(4-(methylsulfonyl)piperazin-1-yl)ethyl)phenyl)pyrazolo[1,5-a]pyridin-2-yl)cyclopropanecarboxamide], the IC50 was 101 to 500 nM in assay [1] and 0.01 to 100 nM in assay [2].

With `CC(=O)Nc1cc2c(-c3ccc(CN4CCN(S(C)(=O)=O)CC4)c(F)c3)cccn2n1` [Compound 21], the IC50 in assay [1] was in the range of 501 to 1000 nM; in assay [2], 101 to 500 nM.

Regarding `C[C@@H]1CN(S(C)(=O)=O)CCN1Cc1ccc(-c2cccn3nc(NC(=O)C4CC4)cc23)cc1` [Compound 44, (R)-N-(4-(4-((2-methyl-4-(methylsulfonyl)piperazin-1-yl)methyl)phenyl)pyrazolo[1,5-a]pyridin-2-yl)cyclopropanecarboxamide], the IC50 in assay [1] lay in the range of 101 to 500 nM; in assay [2], 0.01 to 100 nM.

As for `O=C(Nc1cc2c(-c3ccc(CN4CCS(=O)(=O)CC4)cc3)cccn2n1)C1CC1` [Compound 10, Cyclopropanecarboxylic acid {4-[4-(1,1-dioxo-thiomorpholin-4-ylmethyl)-phenyl]-pyrazolo[1,5-a]pyridin-2-yl}-amide], the concentration for half-maximal inhibition (IC50) was in the range of 101 to 500 nM in assay [1] and 0.01 to 100 nM in assay [2].

For the molecule `O=C(Nc1cc2c(-c3ccc(C(=O)N4CCCCC4)cc3)cccn2n1)C1CC1` [Compound 14, Cyclopropanecarboxylic acid {4-[4-(piperidine-1-carbonyl)-phenyl]-pyrazolo[1,5-a]pyridin-2-yl}-amide], the results for the IC50 in assay [1] and in assay [2] were 101 to 500 nM and 0.01 to 100 nM, respectively.

With `COc1ccc(-c2cccn3nc(NC(=O)C4CC4)cc23)cc1` [Compound 1, N-(4-(4-methoxyphenyl)pyrazolo[1,5-a]pyridin-2-yl)cyclopropanecarboxamide], the IC50 was above 1000 nM in assay [1] and 0.01 to 100 nM in assay [2].
